Tested on: microbiota of germ-free recipient mice
Excerpt: C57Bl/6 WT adult male mice were randomly assigned (without blinding) to treatment groups and were given commercial artificial sweeteners (saccharin-, sucralose- or aspartame-based) or pure saccharin (Sigma Aldrich) in drinking water and fed a high-fat (HFD D12492, 60% Kcal from fat, Research Diets) or standard polysaccharide normal chow (NC) diet (Harlan-Teklad). Compared groups were always fed from the same batch of diet. For antibiotic treatment, mice were given a combination of ciprofloxacin (0.2 gl^−1) and metronidazole ([…]) or vancomycin (0.5 gl^−1) in their drinking water. All antibiotics were obtained from Sigma Aldrich. Adult male outbred Swiss-Webster mice (a widely used mouse strain in germ-free experiments) served as recipients for fecal transplants and were housed in sterile isolators (Park Biosciences). For fecal transplantation experiments, 200 mg of stool (from mouse pellets or human swabs) was resuspended in 5 ml of PBS under anaerobic conditions, vortexed for 3 minutes and allowed to settle by gravity for 2 minutes. Recipient mice were gavaged with 200 μl of the supernatant and maintained on standard NC diet and water throughout the experiment.
pooled fecal matter from naïve adult WT C57Bl/6 male mice was resuspended in 5 ml PBS in an anaerobic chamber (Coy Laboratory Products, 75% N2, 20% CO2, 5% H2), vortexed for 3 minutes and allowed to settle by gravity for 2 minutes. […] were added to a tube containing Chopped Meat Carbohydrate Broth, PR II (BD) and […] of a 5 mgml-1 saccharin solution or an equal volume of PBS. Every 3 days, 500 ml of culture were diluted to fresh medium containing saccharin or PBS. After 9 days, cultures were used for inoculation of germ-free mice.
Frozen fecal samples were processed for DNA isolation using the MoBio PowerSoil kit according to the manufacturer's instructions. 1 ng of the purified fecal DNA was used for PCR amplification and sequencing of the bacterial 16S rRNA gene. ˜365 bp Amplicons spanning the variable region 2 (V2) of the 16S rRNA gene were generated by using the following barcoded primers: Fwd 5′-[…]-3′ (SEQ ID NO: 3), Rev 5′-[…]-3′ (SEQ ID NO: 4). […] Reads were then processed using the QIIME (Quantitative Insights Into Microbial Ecology) analysis pipeline as described, version 1.8. Paired-end joined sequences were grouped into operational taxonomic units (OTUs) using the UCLUST algorithm and the greengenes database. Sequences with distance-based similarity of 97% or greater over median sequence length of 353 bp were assigned to the same OTU. Samples were grouped according to the treatment. Analysis was performed at each taxonomical level (Phylum-genus+OTU level) separately. For each taxon, G test was performed between the different groups. P-values were FDR corrected for multiple hypothesis testing.

[1] = GF recipients of D7 vs D1 microbiome from human responder
[2] = GF recipients of saccharin-enriched culture, day 6, level 2

Which results are given for `O=C1NS(=O)(=O)c2ccccc21` [saccharin]?
decrease in Candidatus Arthromitus [1]: ~10 fold; relative increase of Bacteroides fragilis [1]: 20 fold; relative increase of Weissella ciboria [1]: 20 fold; Saccharin Enriched D6: p_Bacteroidetes [2]: 0.611; Saccharin Enriched D6: p_Firmicutes [2]: 0.3649; Saccharin Enriched D6: p_Tenericutes [2]: 0.02291; Saccharin Enriched D6: p_Bacteroidetes; c_Bacteroidia (GF recipients, day 6, level 3): 0.6108; Saccharin Enriched D6: p_Firmicutes; c_Bacilli (GF recipients, day 6, level 3): 0.3122; Saccharin Enriched D6: p_Firmicutes; c_Clostridia (GF recipients, day 6, level 3): 0.05266; Saccharin Enriched D6: p_Proteobacteria; c_Gammaproteobacteria (GF recipients, day 6, level 3): 0.0001278; Saccharin Enriched D6: p_Tenericutes; c_Mollicutes (GF recipients, day 6, level 3): 0.02291; Saccharin Enriched D6: c_Bacilli; o_Lactobacillales (GF recipients, day 6, level 4): 0.3116; Saccharin Enriched D6: c_Bacteroidia; o_Bacteroidales (GF recipients, day 6, level 4): 0.6108; Saccharin Enriched D6: c_Clostridia; o_Clostridiales (GF recipients, day 6, level 4): 0.05266; Saccharin Enriched D6: c_Gammaproteobacteria; o_Enterobacteriales (GF recipients, day 6, level 4): 0.0001248; Saccharin Enriched D6: c_Mollicutes; o_Anaeroplasmatales (GF recipients, day 6, level 4): 0.02291; Saccharin Enriched D6: o_Anaeroplasmatales; f_Anaeroplasmataceae (GF recipients, day 6, level 5): 0.02291; Saccharin Enriched D6: o_Bacteroidales; f_Bacteroidaceae (GF recipients, day 6, level 5): 0.467; Saccharin Enriched D6: o_Bacteroidales; f_Porphyromonadaceae (GF recipients, day 6, level 5): 0.1379; Saccharin Enriched D6: o_Bacteroidales; f_S24-7 (GF recipients, day 6, level 5): 7.066E−05; Saccharin Enriched D6: o_Bacteroidales; f_[Odoribacteraceae] (GF recipients, day 6, level 5): 0.004319; Saccharin Enriched D6: o_Clostridiales; f_ (GF recipients, day 6, level 5): 0.04275; Saccharin Enriched D6: o_Clostridiales; f_Clostridiaceae (GF recipients, day 6, level 5): 0.005131; Saccharin Enriched D6: o_Clostridiales; f_Dehalobacteriaceae (GF recipients, day 6, level 5): 0.0008389; Saccharin Enriched D6: o_Clostridiales; f_Ruminococcaceae (GF recipients, day 6, level 5): 0.003365; Saccharin Enriched D6: o_Enterobacteriales; f_Enterobacteriaceae (GF recipients, day 6, level 5): 0.0001248; Saccharin Enriched D6: o_Lactobacillales; f_Lactobacillaceae (GF recipients, day 6, level 5): 0.3087; Saccharin Enriched D6: o_Lactobacillales; f_Streptococcaceae (GF recipients, day 6, level 5): 0.0009772; Saccharin Enriched D6: f_Anaeroplasmataceae; g_Anaeroplasma (GF recipients, day 6, level 6): 0.02291; Saccharin Enriched D6: f_Bacteroidaceae; g_Bacteroides (GF recipients, day 6, level 6): 0.467; Saccharin Enriched D6: f_Clostridiaceae; g_Candidatus Arthromitus (GF recipients, day 6, level 6): 0.005047; Saccharin Enriched D6: f_Clostridiaceae; g_Clostridium (GF recipients, day 6, level 6): 4.209E−05; Saccharin Enriched D6: f_Dehalobacteriaceae; g_Dehalobacterium (GF recipients, day 6, level 6): 0.0008389; Saccharin Enriched D6: f_Enterobacteriaceae; g_ (GF recipients, day 6, level 6): 0.0001248; Saccharin Enriched D6: f_Lachnospiraceae; g_[Ruminococcus] (GF recipients, day 6, level 6): 7.818E−05; Saccharin Enriched D6: f_Lactobacillaceae; g_Lactobacillus (GF recipients, day 6, level 6): 0.3087; Saccharin Enriched D6: f_Porphyromonadaceae; g_Parabacteroides (GF recipients, day 6, level 6): 0.1379; Saccharin Enriched D6: f_Ruminococcaceae; g_ (GF recipients, day 6, level 6): 0.003112; Saccharin Enriched D6: f_S24-7; g_ (GF recipients, day 6, level 6): 7.066E−05; Saccharin Enriched D6: f_Streptococcaceae; g_Lactococcus (GF recipients, day 6, level 6): 0.0008509; Saccharin Enriched D6: f_[Odoribacteraceae]; g_Odoribacter (GF recipients, day 6, level 6): 0.004319; Saccharin Enriched D6: o_Clostridiales; f_; g_ (GF recipients, day 6, level 6): 0.04275
